Three compounds from US9101638B2, “Boronic acid derivatives and therapeutic uses thereof” (Rempex Pharmaceuticals, Inc., priority 2013, dated 2015) can be followed below.

In one experiment the target is CTX-M-14 (Escherichia coli, UniProt Q9L5C7). In words: Inhibition of nitrocefin cleavage by purified CTX-M-14. The format is biochemical. To be noted: nitrocefin reporter substrate, purified enzyme; read-out: Ki (CTX-M-14, NCF). The method in brief: (§1)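 10 min RT preincubation, enzyme with inhibitor series in reaction buffer. Substrate nitrocefin; kinetic read 490 nm, 10 sec intervals, 10 min total.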

A further experiment has as its target T1, Plasmin (Homo sapiens, UniProt P00747).
T1 construct: Plasmin; MPBio; 19419890; purchased MPBio 19419890
The experiment can be described thus: Serine protease inhibition: plasmin. The following applies: Table 8A, class symbols; read-out: IC50 Plasmin. The format is biochemical, mammalian. The protocol: (§2) The effect of selected BLIs on the enzymatic activity of some common mammalian serine proteases was evaluated.
(§3) 50 μl of the diluted enzyme was mixed with 50 μl of inhibitor at various concentrations and 50 μl of corresponding buffer (Table 7). Reaction mixtures were incubated for 10 min at 37° C. Subsequently, 50 μl of corresponding substrate (Table 7) was added and absorbance or fluorescence was monitored for 30 min on SpectraMax M2 plate reader (Molecular Devices). 4-(2-Aminoethyl)benzenesulfonyl fluoride hydrochloride (AEBSF) and leupeptin were used as positive controls. Rates of reaction were calculated and presented relative to “no treatment” control.

The subject of another experiment is ec302 (TEM-10). In words: Potentiation of aztreonam, strain ec302. In kind it is cell-based.
In the next experiment the target is T2, HtrA2 (Homo sapiens, UniProt O43464).
T2 sequence (O43464 134-458): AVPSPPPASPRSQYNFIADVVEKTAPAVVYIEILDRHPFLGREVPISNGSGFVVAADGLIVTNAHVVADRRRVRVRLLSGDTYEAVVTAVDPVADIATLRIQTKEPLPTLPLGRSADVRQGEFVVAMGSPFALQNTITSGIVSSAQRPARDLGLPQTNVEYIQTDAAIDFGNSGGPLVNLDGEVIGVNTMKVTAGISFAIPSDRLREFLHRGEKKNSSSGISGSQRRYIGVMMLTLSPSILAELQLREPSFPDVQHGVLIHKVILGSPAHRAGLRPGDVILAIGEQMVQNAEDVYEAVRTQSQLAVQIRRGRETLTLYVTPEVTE
The experiment can be described thus: Serine protease inhibition: HtrA2. The format is biochemical, mammalian. The following applies: Table 8B; read-out: IC50 HtrA2. The protocol:
as §2, §3

A further experiment has as its target OXA-48 (Klebsiella pneumoniae, UniProt Q6XEC0). In words: Inhibition of nitrocefin cleavage by purified OXA-48. In kind it is biochemical. To be noted: nitrocefin reporter substrate, purified enzyme; read-out: Ki (OXA-48, NCF). The gist of the method: as §1
The target of another experiment is T3, Elastase (Sus scrofa, UniProt P00772).
T3 construct: purchased Calbiochem 324682
In words: Serine protease inhibition: elastase. To be noted: Table 8A, class symbols; read-out: IC50 Elastase. The format is biochemical, mammalian. As to the method: as §2, §3

In experiment [1] the target is T4, Dipeptidyl peptidase 9 (DPP9) (Homo sapiens, UniProt Q86TI2).
T4 construct: purchased BPS Bioscience 80090
The experiment can be described thus: Serine protease inhibition: DPP9. The format is biochemical, mammalian. To be noted: Table 8B; read-out: IC50 DPP9. The method in brief:
(§4)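 Inhibitors at several concentrations are preincubated with each protease for 10 min at 37° C before substrate is added, and reaction rates over 30 min are compared with an untreated control.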

The next experiment addresses CMY-2 (Klebsiella pneumoniae, UniProt Q48434). In words: Inhibition of nitrocefin cleavage by purified CMY-2. To be noted: nitrocefin reporter substrate, purified enzyme; read-out: Ki (CMY-2, NCF). In kind it is biochemical. The protocol:
Purified enzymes were mixed with various concentrations of inhibitors in reaction buffer and incubated for 10 min at room temperature. Nitrocefin was added and substrate cleavage profiles were recorded at 490 nm every 10 sec for 10 min.

A further experiment concerns KP1004 (K-2). The experiment can be described thus: Potentiation of aztreonam, strain KP1004. The format is cell-based. The following applies: minimum BLI concentration inhibiting growth with 4 μg/mL aztreonam.
Another experiment addresses T5, Chymotrypsin (Bos taurus, UniProt P00766).
T5 construct: purchased Calbiochem 230832
The experiment can be described thus: Serine protease inhibition: chymotrypsin. In kind it is biochemical, mammalian. To be noted: Table 8A, class symbols; read-out: IC50 Chymotrypsin. The method in brief: as §4

In another experiment the test system is ec308 (SHV-5). The experiment can be described thus: Potentiation of tigemonam, strain ec308. In kind it is cell-based. The following applies: minimum BLI concentration inhibiting growth with 4 μg/mL tigemonam.
The test system of another experiment is PAM1032/KPC-2. In words: Biapenem potentiation in PAM1032/KPC-2 (MexAB-OprM overexpressed). In kind it is cell-based, Pseudomonas aeruginosa. The protocol:
Efflux of BLIs from Pseudomonas aeruginosa by the MexAB-OprM efflux pump was also evaluated. […] Due to expression of KPC-2 both strains became resistant to biapenem. […] Potency of BLIs to potentiate biapenem in these strains was determined. […] The ratio of MPC64 values for each BLI in PAM1032/KPC-2 (efflux proficient) and PAM1154/KPC-2 (efflux deficient) was determined to generate the Efflux Index (EI).

For another experiment, the target named is SHV-12 (Klebsiella pneumoniae, UniProt P0AD64, E235K/G234S/L31Q). The experiment can be described thus: Inhibition of nitrocefin cleavage by purified SHV-12. In kind it is biochemical. The following applies: nitrocefin reporter substrate, purified enzyme; read-out: Ki (SHV-12, NCF). The method in brief: as §1
Another experiment addresses T6, Thrombin (Homo sapiens, UniProt P00734).
T6 construct: Thrombin; MPBio; 19491880; purchased MPBio 19491880
The experiment can be described thus: Serine protease inhibition: thrombin. In kind it is biochemical, mammalian. To be noted: Table 8A, class symbols; read-out: IC50 Thrombin. The gist of the method:
as §4

In another experiment the test system is ECL1002. The experiment can be described thus: Potentiation of aztreonam, strain ECL1002. In kind it is cell-based. To be noted: minimum BLI concentration inhibiting growth with 4 μg/mL aztreonam.
The target in another experiment is P99 (Enterobacter cloacae, UniProt P05364). In words: Inhibition of nitrocefin cleavage by purified P99. The following applies: nitrocefin reporter substrate, purified enzyme; read-out: Ki (P99, NCF). In kind it is biochemical. The method in brief: as §1
The subject of a further experiment is EC1010 (CMY-6). In words: Potentiation of aztreonam, strain EC1010. In kind it is cell-based.
Another experiment relates to KP1009 (CTX-M-15). In words: Potentiation of aztreonam, strain KP1009. The format is cell-based.
The mark [2] stands for this setting: BLI potency to decrease biapenem MIC 64-fold, 32 to 0.5 μg/ml, efflux proficient strain.

Where two headings read alike, the source gives them in different places.

T3 sequence (P00772 27-266): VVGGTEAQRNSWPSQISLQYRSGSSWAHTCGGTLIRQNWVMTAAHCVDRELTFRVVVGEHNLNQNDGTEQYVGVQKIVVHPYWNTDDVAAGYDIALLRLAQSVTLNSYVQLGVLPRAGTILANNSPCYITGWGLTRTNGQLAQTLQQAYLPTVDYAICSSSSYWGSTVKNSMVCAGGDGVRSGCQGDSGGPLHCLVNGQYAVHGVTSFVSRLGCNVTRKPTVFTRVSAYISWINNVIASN
T1 sequence (P00747 581-810 limits assumed, species assumed): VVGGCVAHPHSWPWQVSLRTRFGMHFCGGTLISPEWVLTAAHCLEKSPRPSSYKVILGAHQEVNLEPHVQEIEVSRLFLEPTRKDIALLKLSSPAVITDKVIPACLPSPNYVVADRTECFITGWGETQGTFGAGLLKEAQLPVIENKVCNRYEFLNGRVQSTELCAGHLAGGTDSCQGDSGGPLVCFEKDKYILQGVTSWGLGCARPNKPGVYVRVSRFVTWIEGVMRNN
T1 sequence (P00747 97-580 partner limits assumed, species assumed): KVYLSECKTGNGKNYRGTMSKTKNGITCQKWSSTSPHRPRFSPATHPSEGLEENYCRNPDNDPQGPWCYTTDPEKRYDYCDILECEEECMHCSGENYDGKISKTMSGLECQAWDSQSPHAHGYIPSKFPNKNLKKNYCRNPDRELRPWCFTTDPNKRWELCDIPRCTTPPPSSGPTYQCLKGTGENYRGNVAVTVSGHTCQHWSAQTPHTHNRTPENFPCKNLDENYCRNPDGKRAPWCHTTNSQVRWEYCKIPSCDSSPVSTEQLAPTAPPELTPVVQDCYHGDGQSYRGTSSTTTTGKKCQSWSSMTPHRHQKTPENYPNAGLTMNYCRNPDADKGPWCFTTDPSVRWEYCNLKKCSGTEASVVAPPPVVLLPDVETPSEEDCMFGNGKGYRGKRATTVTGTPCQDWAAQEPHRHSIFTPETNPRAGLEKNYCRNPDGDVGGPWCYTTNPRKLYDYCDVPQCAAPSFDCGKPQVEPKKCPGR
Sequence of SHV-12 (P0AD64 22-286 L31Q/G234S/E235K): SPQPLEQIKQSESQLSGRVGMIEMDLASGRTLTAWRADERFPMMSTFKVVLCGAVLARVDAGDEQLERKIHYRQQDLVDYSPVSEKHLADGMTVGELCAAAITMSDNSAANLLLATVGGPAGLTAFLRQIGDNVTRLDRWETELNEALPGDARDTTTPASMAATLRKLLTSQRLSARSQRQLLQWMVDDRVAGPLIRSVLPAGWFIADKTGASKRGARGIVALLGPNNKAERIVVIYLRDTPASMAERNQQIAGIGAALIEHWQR
T4 sequence (Q86TI2 whole entry): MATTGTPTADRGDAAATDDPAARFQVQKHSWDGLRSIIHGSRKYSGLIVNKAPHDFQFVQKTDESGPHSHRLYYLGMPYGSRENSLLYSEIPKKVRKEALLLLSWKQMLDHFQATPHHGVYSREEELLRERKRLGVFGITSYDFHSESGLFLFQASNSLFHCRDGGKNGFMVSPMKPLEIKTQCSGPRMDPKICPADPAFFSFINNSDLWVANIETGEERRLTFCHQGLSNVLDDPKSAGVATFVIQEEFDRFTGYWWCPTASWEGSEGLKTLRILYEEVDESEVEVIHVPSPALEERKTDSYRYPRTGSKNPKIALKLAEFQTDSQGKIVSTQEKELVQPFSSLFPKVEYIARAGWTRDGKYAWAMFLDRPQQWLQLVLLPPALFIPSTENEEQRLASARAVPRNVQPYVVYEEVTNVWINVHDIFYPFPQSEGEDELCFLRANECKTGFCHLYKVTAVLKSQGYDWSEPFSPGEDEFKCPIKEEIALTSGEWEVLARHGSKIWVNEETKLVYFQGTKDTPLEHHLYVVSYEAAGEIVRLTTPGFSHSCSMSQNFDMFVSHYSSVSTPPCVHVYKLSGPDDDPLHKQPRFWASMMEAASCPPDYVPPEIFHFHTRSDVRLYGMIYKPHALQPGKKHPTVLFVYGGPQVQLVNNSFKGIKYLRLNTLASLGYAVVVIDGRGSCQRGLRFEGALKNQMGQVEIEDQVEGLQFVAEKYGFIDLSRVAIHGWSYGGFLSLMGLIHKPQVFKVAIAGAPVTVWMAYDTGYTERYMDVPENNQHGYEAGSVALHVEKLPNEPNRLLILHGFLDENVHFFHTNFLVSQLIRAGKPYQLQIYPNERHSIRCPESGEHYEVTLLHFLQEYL
Sequence of OXA-48 (Q6XEC0 23-265 limits assumed): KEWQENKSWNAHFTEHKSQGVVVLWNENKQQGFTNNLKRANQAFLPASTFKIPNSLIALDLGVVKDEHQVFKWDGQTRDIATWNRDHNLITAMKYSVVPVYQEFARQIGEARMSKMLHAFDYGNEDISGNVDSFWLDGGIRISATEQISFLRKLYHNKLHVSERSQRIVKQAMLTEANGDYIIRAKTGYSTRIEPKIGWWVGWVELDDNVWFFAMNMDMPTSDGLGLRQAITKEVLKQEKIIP
Sequence of CMY-2 (Q48434 21-381, species assumed): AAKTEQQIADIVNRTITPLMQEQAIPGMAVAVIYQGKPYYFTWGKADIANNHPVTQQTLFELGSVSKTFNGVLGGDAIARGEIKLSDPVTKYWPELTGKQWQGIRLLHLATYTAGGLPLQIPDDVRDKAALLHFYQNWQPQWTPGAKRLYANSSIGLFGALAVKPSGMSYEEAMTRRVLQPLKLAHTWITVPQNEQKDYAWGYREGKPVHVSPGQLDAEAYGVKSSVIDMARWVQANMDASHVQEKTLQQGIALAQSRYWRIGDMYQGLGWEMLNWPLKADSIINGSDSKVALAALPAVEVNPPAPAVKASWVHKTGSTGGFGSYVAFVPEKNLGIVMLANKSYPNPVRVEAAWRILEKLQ
Sequence of P99 (P05364 21-381): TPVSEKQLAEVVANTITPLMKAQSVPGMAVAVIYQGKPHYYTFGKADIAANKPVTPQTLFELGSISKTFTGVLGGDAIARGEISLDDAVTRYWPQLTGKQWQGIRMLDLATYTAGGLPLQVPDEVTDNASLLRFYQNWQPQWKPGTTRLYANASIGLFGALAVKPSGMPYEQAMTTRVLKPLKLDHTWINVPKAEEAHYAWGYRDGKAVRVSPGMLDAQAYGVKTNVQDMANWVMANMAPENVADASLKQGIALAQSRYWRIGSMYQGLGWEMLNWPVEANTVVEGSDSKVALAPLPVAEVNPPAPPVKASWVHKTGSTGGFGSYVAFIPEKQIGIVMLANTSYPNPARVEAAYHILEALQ
Sequence of CTX-M-14 (Q9L5C7 entry or part of it): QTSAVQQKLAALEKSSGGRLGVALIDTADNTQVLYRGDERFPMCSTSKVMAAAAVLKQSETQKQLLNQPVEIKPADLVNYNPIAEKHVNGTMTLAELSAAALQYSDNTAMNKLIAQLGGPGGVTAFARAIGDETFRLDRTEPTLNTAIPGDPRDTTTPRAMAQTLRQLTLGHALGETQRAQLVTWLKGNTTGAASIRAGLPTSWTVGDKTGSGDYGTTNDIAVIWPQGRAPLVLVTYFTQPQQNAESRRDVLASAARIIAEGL

`O=C(Cc1cccs1)N[C@H]1Cc2cccc(C(=O)O)c2OB1O` [CPD A, reference compound]: the Ki at CTX-M-14, at OXA-48, on CMY-2 and at SHV-12 was under 0.001 µM in each case. In addition, the half-maximal inhibitory concentration (IC50) on Plasmin is over 800 µM; at HtrA2 it was over 500 µM; at Elastase it was over 800 µM; in experiment [1], 15 to 500 µM; at Chymotrypsin it was under 300 µM; on Thrombin, under 300 µM. In addition, the “AZT MPC4 TEM-10 ec302” value in the experiment on ec302 (TEM-10) is on record as “Y (key: X = MIC of less than 1 μg/mL; Y = MIC of 1 μg/mL to 10 μg/mL; Z = MIC of greater than 10 μg/mL)”. In the experiment on KP1004 (K-2), the “AZT MPC4 K-2 KP1004” value is “Y (Y = MIC of 1 μg/mL to 10 μg/mL)”. In addition, the “TIG MPC4 SHV-5 ec308” value with ec308 (SHV-5) is given as “Y (Y = MIC of 1 μg/mL to 10 μg/mL)”. The “PAM1032/KPC-2 Biapenem MPC64” value in the experiment with PAM1032/KPC-2 (setting [2]) is listed as “Z (Z Greater than 40)”. Further, the “AZT MPC4 ECL1002” value in the experiment with ECL1002 is given as “Y (Y = MIC of 1 μg/mL to 10 μg/mL)”.

Regarding `O=CN[C@H]1Cc2cccc(C(=O)O)c2OB1O` [Compound 4, (R)-3-formamido-2-hydroxy-3,4-dihydro-2H-benzo[e][1,2]oxaborinine-8-carboxylic acid], the inhibition constant Ki on CTX-M-14, on OXA-48, at P99, at CMY-2 and at SHV-12 was 0.001 to 0.01 µM in each case. Also, the IC50 on Plasmin is over 800 µM; at HtrA2, over 500 µM; at Elastase, over 800 µM; in experiment [1] it was over 500 µM; at Chymotrypsin, over 800 µM; on Thrombin it was over 800 µM. Also, the “AZT MPC4 TEM-10 ec302” value in the experiment with ec302 (TEM-10) is reported as “Y (key: X = MIC of less than 1 μg/mL; Y = MIC of 1 μg/mL to 10 μg/mL; Z = MIC of greater than 10 μg/mL)”. The “AZT MPC4 K-2 KP1004” value with KP1004 (K-2) was “X (X = MIC of less than 1 μg/mL)”. Moreover, in the experiment on ec308 (SHV-5), the “TIG MPC4 SHV-5 ec308” value was “Y (Y = MIC of 1 μg/mL to 10 μg/mL)”. Moreover, in the experiment with EC1010 (CMY-6), the “AZT MPC4 CMY-6 EC1010” value is “X (key: X = MIC of less than 1 μg/mL; Y = MIC of 1 μg/mL to 10 μg/mL; Z = MIC of greater than 10 μg/mL)”. Moreover, in the experiment with PAM1032/KPC-2, the “PAM1032/KPC-2 Biapenem MPC64” value is “X (key: X = Less than 10; Y = 10 to 40; Z Greater than 40)”. Besides, the “AZT MPC4 ECL1002” value with ECL1002 is given as “Y (Y = MIC of 1 μg/mL to 10 μg/mL)”.

In the case of `O=C(CSC(F)F)N[C@H]1Cc2cccc(C(=O)O)c2OB1O` [Compound 3, (R)-3-(2-(difluoromethylthio)acetamido)-2-hydroxy-3,4-dihydro-2H-benzo[e][1,2]oxaborinine-8-carboxylic acid], the IC50 is over 800 µM at Plasmin; over 500 µM on HtrA2; over 800 µM at Elastase; over 500 µM in [1]; over 800 µM at Chymotrypsin; over 800 µM at Thrombin. In addition, the “AZT MPC4 TEM-10 ec302” value in the experiment on ec302 (TEM-10) is “Y (key: X = MIC of less than 1 μg/mL; Y = MIC of 1 μg/mL to 10 μg/mL; Z = MIC of greater than 10 μg/mL)”. Besides, the Ki at OXA-48, at P99 and on SHV-12 was under 0.001 µM throughout. The “AZT MPC4 K-2 KP1004” value with KP1004 (K-2) is “Y (Y = MIC of 1 μg/mL to 10 μg/mL)”. In addition, in the experiment with ec308 (SHV-5), the “TIG MPC4 SHV-5 ec308” value is reported as “X (X = MIC of less than 1 μg/mL)”. For the same compound, the “PAM1032/KPC-2 Biapenem MPC64” value in the experiment on PAM1032/KPC-2 (setting [2]) was “Z (Z Greater than 40)”. The “AZT MPC4 ECL1002” value with ECL1002 is “Y (Y = MIC of 1 μg/mL to 10 μg/mL)”. The “AZT MPC4 CTX-M-15 KP1009” value in the experiment on KP1009 (CTX-M-15) was “Y (key: X = MIC of less than 1 μg/mL; Y = MIC of 1 μg/mL to 10 μg/mL; Z = MIC of greater than 10 μg/mL)”.
